Measurements as given in the supplement of paper PMC10307832.

Key:
Assay in all cases: relative viability (nuclei count vs DMSO), 5 days (fraction); higher = more cells survive
[1] = compound: COc1cc(Nc2ncc(F)c(Nc3ccc4c(n3)NC(=O)C(C)(C)O4)n2)cc(OC)c1OC [R406] + COc1cccc2cc(-c3nc([C@H]4CC[C@H](C(=O)O)CC4)n4ncnc(N)c34)[nH]c12 [OSI-027] (partner 0.5 µM)
Outline: (§1)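 Each reported value is a median over duplicate plates. It expresses relative viability: treated-well nuclei count divided by vehicle-well nuclei count. Lung cancer cell lines in 1536-well plates were dosed by pin tool a day after seeding, alone with one drug or with a fixed anchor-drug dose plus five library-drug doses (not always all listed) in √10 steps, and nuclei were counted after 5 days.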

[2] = compound: O=C(/C=C/c1cccnc1)NCCCCC1CCN(C(=O)c2ccccc2)CC1 [Daporinad] + C[C@]1(O)C[C@@H](c2nc(-c3ccc4ccc(-c5ccccc5)nc4c3)c3c(N)nccn32)C1 [Linsitinib] (partner 1 µM)
Outline: as §1

[3] = compound: COc1cc(Nc2ncc(F)c(Nc3ccc4c(n3)NC(=O)C(C)(C)O4)n2)cc(OC)c1OC [R406] + O=C(CCCCCCC(=O)Nc1ccccc1)NO [Vorinostat] (partner 1 µM)
Outline: as §1

[4] = compound: O=C(/C=C/c1cccnc1)NCCCCC1CCN(C(=O)c2ccccc2)CC1 [Daporinad] + CC1(C)CCC(c2ccc(Cl)cc2)=C(CN2CCN(c3ccc(C(=O)NS(=O)(=O)c4ccc(N[C@H](CCN5CCOCC5)CSc5ccccc5)c(S(=O)(=O)C(F)(F)F)c4)cc3)CC2)C1 [Navitoclax] (partner 0.5 µM)
Outline: as §1

Cell Line | relative viability ([1]; first compound 0.08 µM) | relative viability ([1]; first compound 0.253 µM) | relative viability ([1]; first compound 0.8 µM) | relative viability ([1]; first compound 2.53 µM) | relative viability ([1]; first compound 8 µM) | relative viability ([2]; first compound 0.0005 µM) | relative viability ([2]; first compound 0.001581 µM) | relative viability ([2]; first compound 0.005 µM) | relative viability ([2]; first compound 0.01581 µM) | relative viability ([3]; first compound 0.08 µM) | relative viability ([3]; first compound 0.253 µM) | relative viability ([3]; first compound 0.8 µM) | relative viability ([3]; first compound 2.53 µM) | relative viability ([3]; first compound 8 µM) | relative viability ([4]; first compound 0.0005 µM) | relative viability ([4]; first compound 0.001581 µM) | relative viability ([4]; first compound 0.005 µM) | relative viability ([4]; first compound 0.01581 µM)
201T | 0.974 | 0.762 | 0.705 | 0.683 | 0.517 | 0.998 | 0.973 | 1.04 | 1.02 | 0.893 | 1.02 | 1.02 | 0.795 | 0.749 | 1.23 | 1.19 | 1.21 | 1.2
A549 |  |  |  |  |  | 0.535 | 0.604 | 0.516 | 0.627 |  |  |  |  |  | 1.3 | 1.21 | 1.12 | 0.814
A-427 | 0.568 | 0.523 | 0.508 | 0.245 | 0.238 | 0.96 | 1.08 | 1.1 | 0.881 | 0.856 | 0.928 | 0.852 | 0.939 | 0.621 | 0.964 | 1.04 | 0.722 | 0.691
ABC-1 | 0.554 | 0.477 | 0.531 | 0.341 | 0.304 | 0.887 | 1.04 | 0.882 | 0.792 | 1.33 | 1.37 | 1.35 | 1.11 | 0.765 |  |  |  | 
BEN | 0.291 | 0.299 | 0.286 | 0.298 | 0.281 | 0.923 | 0.938 | 0.951 | 1.22 | 0.606 | 0.601 | 0.607 | 0.555 | 0.542 | 0.074 | 0.147 | 0.0521 | 0.083
CAL-12T | 0.654 | 0.702 | 0.895 | 0.133 | 0.209 | 0.697 | 0.936 | 0.778 | 0.24 | 0.785 | 0.723 | 0.758 | 0.762 | 0.509 | 1.33 | 0.925 | 0.518 | 0.172
COR-L23 | 0.704 | 0.794 | 0.995 | 0.527 | 0.397 | 0.964 | 0.959 | 0.942 | 0.189 | 0.483 | 0.433 | 0.424 | 0.279 | 0.244 | 1.01 | 0.966 | 0.916 | 0.186
COR-L 105 | 0.659 | 0.612 | 0.752 | 0.405 | 0.235 | 0.927 | 1.07 | 0.842 | 1.08 | 0.743 | 0.893 | 0.824 | 0.651 | 0.514 | 0.777 | 0.883 | 0.722 | 0.618
Calu-6 |  |  |  |  |  | 0.841 | 1.03 | 0.926 | 0.821 |  |  |  |  |  | 0.853 | 0.681 | 0.527 | 0.196
ChaGo-K-1 | 0.606 | 0.565 | 0.672 | 0.386 | 0.471 |  |  |  |  | 0.755 | 0.839 | 0.822 | 0.609 | 0.637 | 1.02 | 0.58 | 0.845 | 0.492
EBC-1 |  |  |  |  |  | 0.747 | 1.21 | 0.801 | 1.07 |  |  |  |  |  | 0.347 | 0.4 | 0.405 | 0.389
EKVX | 0.721 | 0.739 | 0.778 | 0.601 | 0.552 | 1.04 | 1.09 | 0.913 | 1.18 | 0.78 | 0.567 | 0.757 | 0.6 | 0.653 | 0.808 | 0.914 | 0.97 | 1.11
EMC-BAC-2 | 0.373 | 0.416 | 0.407 | 0.232 | 0.203 | 0.904 | 0.797 | 0.802 | 0.339 | 0.405 | 0.785 | 0.53 | 0.411 | 0.145 | 1.16 | 1.16 | 1.01 | 0.318
EPLC-272H | 0.275 | 0.291 | 0.253 | 0.203 | 0.229 | 1.11 | 1.32 | 1.31 | 1.4 | 0.29 | 0.444 | 0.511 | 0.286 | 0.168 | 1.22 | 1.47 | 1.28 | 1.38
H3255 | 0.569 |  | 0.651 | 0.426 | 0.406 | 0.913 | 0.951 | 1.03 | 1.13 | 0.767 | 0.816 | 0.996 | 0.72 | 0.638 | 0.483 | 0.429 | 0.584 | 0.695
HARA | 0.621 | 0.668 | 0.591 | 0.22 | 0.198 | 0.949 | 0.937 | 1.03 | 0.188 | 0.66 | 0.606 | 0.515 | 0.489 | 0.515 | 1.15 | 1.08 | 1.14 | 0.275
HCC-15 | 0.701 | 0.928 | 0.832 | 0.505 | 0.439 | 0.79 | 0.943 | 0.926 | 0.928 | 0.919 | 0.921 | 0.867 | 0.842 | 0.81 | 0.661 | 0.776 | 0.716 | 0.764
HCC-44 | 0.435 | 0.662 | 0.599 | 0.293 | 0.363 | 0.655 | 0.635 | 0.762 | 0.714 | 1.07 | 1.1 | 1.1 | 1.04 | 1.22 | 1.02 | 0.99 | 1.02 | 0.897
HCC-78 | 0.335 | 0.385 | 0.397 | 0.386 | 0.323 | 0.541 | 0.619 | 0.767 | 0.921 | 0.452 | 0.426 | 0.412 | 0.29 | 0.331 | 0.644 | 0.935 | 0.842 | 1.05
